What is called IC50 is the concentration that gives 50% inhibition. Higher therefore signals weaker potency in that assay.

T1 sequence (P39900 106-470): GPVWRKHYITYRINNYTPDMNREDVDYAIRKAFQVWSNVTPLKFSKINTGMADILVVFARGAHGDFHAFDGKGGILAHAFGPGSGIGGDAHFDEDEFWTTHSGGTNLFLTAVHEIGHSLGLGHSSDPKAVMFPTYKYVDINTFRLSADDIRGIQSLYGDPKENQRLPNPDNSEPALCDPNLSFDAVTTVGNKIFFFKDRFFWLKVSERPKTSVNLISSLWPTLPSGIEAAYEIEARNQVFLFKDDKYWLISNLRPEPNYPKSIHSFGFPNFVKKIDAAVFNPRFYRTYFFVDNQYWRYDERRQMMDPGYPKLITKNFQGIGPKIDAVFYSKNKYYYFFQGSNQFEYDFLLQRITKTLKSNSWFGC

One data set has as its target T1, human macrophage elastase (HME/hMMP-12) (Homo sapiens, UniProt P39900).
T1 construct: 0.5 nM HME; purchased R&D Systems 917-MP
The data set is described as follows: In vitro HME inhibition test (standard or high-sensitivity). To be noted: in some cases mean values. The class given is biochemical. In a few lines: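 Fluorogenic assay: 0.5 nM autoactivated HME with 5 µM Mca-Pro-Leu-Gly-Leu-Glu-Glu-Ala-Dap(Dnp)-NH2 in HEPES pH 7.4 buffer (NaCl, CaCl2, ZnCl2, EDTA, Brij), 2 h at 37 °C; ex 323/em 393 nm. IC50 from fluorescence versus concentration. High-sensitivity format: ~0.05 nM enzyme, ~16 h incubation.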
`Cc1ccc2nnn(C[C@H]3CC[C@@H](C(=O)c4ccc(OCCc5ccccc5)cc4)[C@@H]3C(=O)O)c(=O)c2c1` (single isomer, unassigned) [Example 113, (+)-(1RS,2SR,5RS)-2-[(6-Methyl-4-oxo-1,2,3-benzotriazin-3(4H)-yl)methyl]-5-[4-(2-phenylethoxy)benzoyl]cyclopentanecarboxylic acid] returned an IC50 of 240 pM.
Still for that read-out and setting: then `CCCCCCOc1ccc(C(=O)[C@H]2CC[C@@H](Cn3nnc4ccccc4c3=O)[C@@H]2C(=O)O)cc1` (racemic) [Example 6, (+/−)-(1RS,2RS,5SR)-2-[4-(Hexyloxy)benzoyl]-5-[(4-oxo-1,2,3-benzotriazin-3(4H)-yl)methyl]cyclopentanecarboxylic acid], with 170 pM.
Regarding `CC(C)CCOc1ccc(C(=O)[C@@H]2CC[C@H](Cn3nnc4ccc(C(F)(F)F)cc4c3=O)[C@H]2C(=O)O)cc1` (single isomer, unassigned) [Example 62, (−)-(1RS,2RS,5SR)-2-[4-(3-Methylbutoxy)benzoyl]-5-{[4-oxo-6-(trifluoromethyl)-1,2,3-benzotriazin-3(4H)-yl]methyl}cyclopentanecarboxylic acid], half-maximal inhibition (IC50) was put at 4700 pM.
The compound `Cc1cccc(COc2ccc(C(=O)[C@@H]3CC[C@H](Cn4nnc5ccc(C(F)(F)F)cc5c4=O)[C@H]3C(=O)O)cc2)c1` (single isomer, unassigned) [Example 17, (−)-(1RS,2RS,5SR)-2-{4-[(3-Methylbenzyl)oxy]benzoyl}-5-{[4-oxo-6-(trifluoromethyl)-1,2,3-benzotriazin-3(4H)-yl]methyl}cyclopentanecarboxylic acid] showed an IC50 of 48000 pM.
The same measure, in the same setting: then `O=C(O)[C@@H]1[C@@H](Cn2nnc3ccc(C(F)(F)F)cc3c2=O)CC[C@H]1C(=O)c1ccc(OCC2CCCC2)cc1` (single isomer, unassigned) [Example 45, (−)-(1RS,2RS,5SR)-2-[4-(Cyclopentylmethoxy)benzoyl]-5-{[4-oxo-6-(trifluoromethyl)-1,2,3-benzotriazin-3(4H)-yl]methyl}cyclopentanecarboxylic acid], with 4100 pM; and `COc1cccc(COc2ccc(C(=O)[C@@H]3CC[C@H](Cn4nnc5ccc(C)cc5c4=O)[C@H]3C(=O)O)cc2)c1` (single isomer, unassigned) [Example 108, (−)-(1RS,2RS,5SR)-2-{4-[(3-Methoxybenzyl)oxy]benzoyl}-5-[(6-methyl-4-oxo-1,2,3-benzotriazin-3(4H)-yl)methyl]cyclopentanecarboxylic acid], with 470000 pM; and `CCCCCOc1ccc(C(=O)[C@@H]2CC[C@H](Cn3nnc4ccccc4c3=O)[C@H]2C(=O)O)cc1` (single isomer, unassigned) [Example 9, (−)-(1RS,2SR,5RS)-2-[(4-Oxo-1,2,3-benzotriazin-3(4H)-yl)methyl]-5-[4-(pentyloxy)benzoyl]cyclopentanecarboxylic acid], with 145000 pM.
The same measure, in the same setting: then `O=C(O)[C@H]1[C@H](Cn2nnc3ccc(C(F)(F)F)cc3c2=O)CC[C@@H]1C(=O)c1ccc(OCc2ccc(Cl)cc2)cc1` (racemic) [Example 24, (+/−)-(1RS,2RS,5SR)-2-{4-[(4-Chlorobenzyl)oxy]benzoyl}-5-{[4-oxo-6-(trifluoromethyl)-1,2,3-benzotriazin-3(4H)-yl]methyl}cyclopentanecarboxylic acid], with 15 pM; and `CCCCCOc1ccc(C(=O)[C@H]2CC[C@@H](Cn3nnc4ccccc4c3=O)[C@@H]2C(=O)O)cc1` (racemic) [Example 7, (+/−)-(1RS,2SR,5RS)-2-[(4-Oxo-1,2,3-benzotriazin-3(4H)-yl)methyl]-5-[4-(pentyloxy)benzoyl]cyclopentanecarboxylic acid], with 260 pM.
In the case of `O=C(O)[C@@H]1[C@@H](Cn2nnc3ccc(C(F)(F)F)cc3c2=O)CC[C@H]1C(=O)c1ccc(OCc2ccc(Cl)cc2)cc1` (single isomer, unassigned) [Example 26, (−)-(1RS,2RS,5SR)-2-{4-[(4-Chlorobenzyl)oxy]benzoyl}-5-{[4-oxo-6-(trifluoromethyl)-1,2,3-benzotriazin-3(4H)-yl]methyl}cyclopentanecarboxylic acid], the IC50 came to 1000 pM.
`Cc1ccc2nnn(C[C@H]3CC[C@@H](C(=O)c4ccc(OCc5ccc(F)cc5)cc4)[C@@H]3C(=O)O)c(=O)c2c1` (single isomer, unassigned) [Example 95, (+)-(1RS,2RS,5SR)-2-{4-[(4-Fluorobenzyl)oxy]benzoyl}-5-[(6-methyl-4-oxo-1,2,3-benzotriazin-3(4H)-yl)methyl]cyclopentanecarboxylic acid] returned an IC50 of 25 pM.
Same read-out and setting: the value for `O=C(O)[C@H]1[C@H](Cn2nnc3ccc(C(F)(F)F)cc3c2=O)CC[C@@H]1C(=O)c1ccc(OCCC2CCCC2)cc1` (racemic) [Example 53, (+/−)-(1RS,2RS,5SR)-2-[4-(2-Cyclopentylethoxy)benzoyl]-5-{[4-oxo-6-(trifluoromethyl)-1,2,3-benzotriazin-3(4H)-yl]methyl}cyclopentanecarboxylic acid] was 27 pM; that for `Cc1ccc2nnn(C[C@H]3CC[C@@H](C(=O)c4ccc(OCC5CCCCC5)cc4)[C@@H]3C(=O)O)c(=O)c2c1` (single isomer, unassigned) [Example 118, (−)-(1RS,2RS,5SR)-2-[4-(Cyclohexylmethoxy)benzoyl]-5-[(6-methyl-4-oxo-1,2,3-benzotriazin-3(4H)-yl)methyl]cyclopentanecarboxylic acid] was 150000 pM; that for `CCCCCOc1ccc(C(=O)[C@@H]2CC[C@H](Cn3nnc4ccccc4c3=O)[C@H]2C(=O)O)cc1` (single isomer, unassigned) [Example 8, (+)-(1RS,2SR,5RS)-2-[(4-Oxo-1,2,3-benzotriazin-3(4H)-yl)methyl]-5-[4-(pentyloxy)benzoyl]cyclopentanecarboxylic acid] was 210 pM.

A further data set has as its system rat hepatocytes. The data set is described as follows: Hepatocyte assay for determination of metabolic stability. Format: in vitro ADME. Conditions: after incubation with rat hepatocytes. As for the experimental part: The metabolic stability of test compounds towards hepatocytes is determined by incubating the compounds at low concentrations (preferably below or around 1 μM) and at low cell counts (preferably at 1*10^6 cells/ml) in order to ensure maximum linearity of kinetic conditions in the experiment. Seven samples from the incubation solution are taken for the LC-MS analysis within a fixed time pattern, in order to determine the half-life (i.e. the degradation) of the particular compound. This half life is used to calculate various “Clearance” parameters (CL) and “Fmax” values (see below).
The CL and Fmax values are a measure of the phase 1 and phase 2 metabolism of the compounds in the hepatocytes. In order to minimize the influence of the organic solvent on the enzymes in the incubation batches, the concentration thereof is generally limited to 1% (acetonitrile) or 0.1% (DMSO).
For all species and breeds, a hepatocyte cell count in the liver of 1.1*10^8 cells/g of liver is expected.
The parameters calculated and the meanings thereof are: • Fmax well-stirred [%] maximum possible bioavailability after oral administration • Calculation: (1−CLblood well-stirred/QH)*100 • CLblood well-stirred [L/(h*kg)] calculated blood clearance (well-stirred model) • Calculation: (QH*CL′intrinsic)/(QH+CL′intrinsic) • CL′intrinsic[ml/(min*kg)] maximum ability of the liver (of the hepatocytes) to metabolize a compound (assuming that the liver blood flow is not rate-limiting) • Calculation: CL′intrinsic, apparent*species-specific hepatocyte count [1.1*10^8/g liver]*species-specific liver weight [g/kg] • CL′intrinsic, apparent[ml/(min*mg)] normalizes the elimination constant by dividing it by the hepatocyte cell count x used (x*10^6/ml) • Calculation: ke1[1/min]/(cell count [x*10^6]/incubation volume [ml]) • (QH=species-specific liver blood flow).
With `Cc1ccc2nnn(C[C@H]3CC[C@@H](C(=O)c4ccc(OCc5cccc(OC(F)(F)F)c5)cc4)[C@@H]3C(=O)O)c(=O)c2c1` (racemic) [Example 110, (+)-(1RS,2SR,5RS)-2-[(6-Methyl-4-oxo-1,2,3-benzotriazin-3(4H)-yl)methyl]-5-(4-{[3-(trifluoromethoxy)benzyl]oxy}benzoyl)cyclopentanecarboxylic acid], the “CLblood (calculated blood clearance, well-stirred)” value was 6.67 mL/min/kg and the “Fmax (maximum possible bioavailability after oral administration, well-stirred)” value is 90.4%.
For `Cc1ccc2nnn(C[C@H]3CC[C@@H](C(=O)c4ccc(OCc5ccccc5)cc4)[C@@H]3C(=O)O)c(=O)c2c1` (racemic) [Example 92, (+)-(1RS,2RS,5SR)-2-[4-(Benzyloxy)benzoyl]-5-[(6-methyl-4-oxo-1,2,3-benzotriazin-3(4H)-yl)methyl]cyclopentanecarboxylic acid] the same measures were 16.8 mL/min/kg and 76.1%.
For `Cc1ccc2nnn(C[C@H]3CC[C@@H](C(=O)c4ccc(OCc5cccc(C(F)(F)F)c5)cc4)[C@@H]3C(=O)O)c(=O)c2c1` (racemic) [Example 101, (+)-(1RS,2SR,5RS)-2-[(6-Methyl-4-oxo-1,2,3-benzotriazin-3(4H)-yl)methyl]-5-(4-{[3-(trifluoromethyl)benzyl]oxy}benzoyl)cyclopentanecarboxylic acid] the same measures were 1.5 mL/min/kg and 97.8%.
Regarding `Cc1ccc2nnn(C[C@H]3CC[C@@H](C(=O)c4ccc(OCc5cccc(Cl)c5)cc4)[C@@H]3C(=O)O)c(=O)c2c1` (racemic) [Example 104, (+)-(1RS,2RS,5SR)-2-{4-[(3-Chlorobenzyl)oxy]benzoyl}-5-[(6-methyl-4-oxo-1,2,3-benzotriazin-3(4H)-yl)methyl]cyclopentanecarboxylic acid], the “CLblood (calculated blood clearance, well-stirred)” value is 16.5 mL/min/kg and the “Fmax (maximum possible bioavailability after oral administration, well-stirred)” value was found to be 76.3%.
As for `Cc1ccc2nnn(C[C@H]3CC[C@@H](C(=O)c4ccc(OCc5ccc(F)cc5)cc4)[C@@H]3C(=O)O)c(=O)c2c1` (racemic) [Example 95, (+)-(1RS,2RS,5SR)-2-{4-[(4-Fluorobenzyl)oxy]benzoyl}-5-[(6-methyl-4-oxo-1,2,3-benzotriazin-3(4H)-yl)methyl]cyclopentanecarboxylic acid], the “CLblood (calculated blood clearance, well-stirred)” value is 8.33 mL/min/kg and the “Fmax (maximum possible bioavailability after oral administration, well-stirred)” value is given as 88.2%.

The values are drawn from patent US20170022171A1, “2,5-DISUBSTITUTED CYCLOPENTANECARBOXYLIC ACIDS AND THEIR USE” (Bayer Pharma Aktiengesellschaft, priority 2014, published 2017).
